Test results from patent US20090253651A1, “DRUG DELIVERY SYSTEM BASED ON REGIOSELECTIVELY AMIDATED HYALURONIC ACID” (EURAND PHARMACEUTICALS LTD., priority 2006, published 2009).

Columns and labels:
Assay type in all cases: cell-based
[1] = test system: HT29 (colon rectal carcinoma); assay: Antiproliferative activity, MTT test, HT29; conditions: Homo sapiens, HT-29; HT29 cells, 5 days treatment, MTT on day 6; read-out: IC50, concentration necessary to reduce the cell growth to 50% of the growth of the control
Description: (§1) Antiproliferative activity of the DDS was determined on three lines of carcinoma (HT29: colon rectal carcinoma, H460: lung carcinoma, H460M2: lung metastatic carcinoma which are CPT sensitive. Cells were incubated in 96-well plates for 5 days in complete RPMI1640 Medium (Sigma Chemical Co.) supplemented with 10% FBS (Hyclone Europe), 2 mM L-glutamine (Hyclone Europe), and 100 U/ml penicillin G and 100 ug/ml streptomycin (Sigma Chemical Co.) at […], and in controlled atmosphere (5% CO2), with irinotecan and DDSs of examples 38, 39, 41; the DDS were tested at doses equimolar with those of the reference, in the range 3-30 nM and 0.1-30 μM.
(§2) Cytotoxicity was determined on day 6 (after 5 days treatments) by the MTT test, by measuring cell viability as the cell metabolic capacity to transform the tetrazolium salt of MTT in the blue formazan, by mitochondrial dehydrogenases; the blue colour is read at 570 nm with a spectrophotometer. The following DDSs were tested.

H460 (lung carcinoma) = assay: Antiproliferative activity, MTT test, H460; conditions: Homo sapiens, NCI-H460; H460 cells, 5 days treatment, MTT on day 6; read-out: IC50, concentration necessary to reduce the cell growth to 50% of the growth of the control
Description: as §1, §2

[2] = test system: H460-M2 (lung metastatic carcinoma); assay: Antiproliferative activity, MTT test, H460-M2; conditions: H460-M2 cells, 5 days treatment, MTT on day 6; read-out: IC50, concentration necessary to reduce the cell growth to 50% of the growth of the control
Description: as §1, §2

How did the IC50 [1] turn out when `CCc1c2c(nc3ccc(OC(=O)N4CCC(N5CCCCC5)CC4)cc13)-c1cc3c(c(=O)n1C2)COC(=O)[C@]3(O)CC` [Irinotecan, irinotecan] was run?
Its IC50 is 250 nM.

What about the IC50 (H460 (lung carcinoma)) of the same molecule?
Its IC50 is 440 nM.

What about the IC50 [2] of the same molecule?
The IC50 was 460 nM.
